Measured values taken from patent publication US4888357A, “Antiarthritic β-cycloalkyl-β-oxopropionitriles” (Bristol-Myers Company, priority 1988, dated 1989).
Where two headings read alike, the source gives them in different places.

Columns and labels:
[1] = tested on: adjuvant-induced polyarthritis (hind paw volume); assay: Modified developing adjuvant arthritis in rats (adjuvant-induced polyarthritis, AIP); type: in vivo, male Lewis rats; details: for inhibition in vivo at 100 mg/kg: 100 mg/kg once daily p.o. d. 1-8
Description: A. Modified Developing Adjuvant Arthritis in Rats
This test is based on the procedure originally described by Pearson (Proc. Soc. Biol. Med., 1956, pp 91-5). Each experimental group used six male Lewis rats weighing approx. 250 gm. Arthritis was produced by a single intradermal injection of Mycobacterium butyricum (0.6 mg in 0.1 ml mineral oil) into the base of the tail. Test compounds were administered orally, once daily, starting on the day of inoculation (day 1) through day 8. The initial dosage was reduced during this period when side effects were observed. The paw volume (average of two hind paws) was measured by the merccury displacement method at least twice weekly during the course of the experiment (40 to 42 days). The efficacy of a compound was expressed as the percent reduction of hind paw volume of treated vs. untreated rats using the following equation: [formula]
^a once daily, p.o., from d. 1-8 (unless otherwise specified).
^b % Inhibition of paw edema: 0 = <25; + = 25- <40; ++ = 40-<60; +++

[2] = tested on: delayed-type hypersensitivity (DTH) response; assay: Delayed type hypersensitivity (DTH) response to Mycobacterium butyricum challenge in rats; type: in vivo, male Lewis rats
Description: C. Delayed Type Hypersensitivity (DTH)
Male Lewis rats were immunized on Day 1. Mycobacterium butyricum in mineral oil (6 mg/ml) was injected into the base of the tail at 0.1 ml per rat. A negative control group receiving an equal amount of mineral oil was included. Drug therapy was administered orally from day one to day eight. Delayed type hypersensitivity was tested on day 9. Purified protein derivative (Tuberculin PPD, Statens Seruminstitute, Tuberculin Department, DK-2300 Copenhagen S, Denmark) was dissolved in phosphate buffered saline at 2.5 mg/ml. Twenty μl (50 μg) of the PPD solution was injected intradermally into the right ear of the rat, and the conralateral ear received 20 μl of the phosphate buffered saline vehicle. Forty-eight hours after injection the thickness of both ears was measured to the nearest 0.01 mm using a hand held caliper. The difference between the thickness of right and left ears was defined as the delta value for each rat. Group means and standard errors were compared using a Dunnett's 2-tail test.

[3] = tested on: adjuvant-induced arthritis; details: J. Med. Chem., 1979, 22:1385-9; cited from earlier work
[4] = Rattus norvegicus, po, 480 h, read d. 20-22, read-out: AIP Inhib. score (% Inhibition of paw edema) d. 20-22
[5] = Rattus norvegicus, po, 960 h, read d. 40-42, read-out: AIP Inhib. score (% Inhibition of paw edema) d. 40-42

Structure (SMILES)	inhibition in vivo at 100 mg/kg [1, 4]	inhibition in vivo at 100 mg/kg [1, 5]	other results
CNC(=O)C(C#N)C(=O)C1CC1 (stereo not drawn) [Example 1, β-Cyclopropyl-β-oxo-α-methylcarbamoylpropionitrile]	80 to 100%	80 to 100%	% Reduction-DTH ([2]; 10 mg/kg/d × 8 d. p.o.): 20%; % Reduction-DTH ([2]; 30 mg/kg/d × 8 d. p.o.): 41%; % Reduction-DTH ([2]; 60 mg/kg/d × 8 d. p.o.): 56%; immunomodulating activity (ability to reduce delayed hypersensitivity) ([2]; arthritic rats): exhibits immunomodulating activity
N#CCC(=O)c1ccccc1 [Benzoylacetonitrile (I), Benzoylacetonitrile]	–	–	inhibition of adjuvant-induced arthritis in rats [3]: effective inhibitors of adjuvant-induced arthritis in rats
CN(C)C(=O)C(C#N)C(=O)C1CC1 (stereo not drawn) [Example 3, β-Cyclopropyl-α-dimethylcarbamoyl-β-oxopropionitrile]	60 to 80%	60 to 80%	–
N#CC(C(=O)NC1CCC1)C(=O)C1CC1 (stereo not drawn) [Example 6, α-Cyclobutylcarbamoyl-β-cyclopropyl-β-oxopropionitrile]	25 to 40%	25 to 40%	–
C#CCNC(=O)C(C#N)C(=O)C1CC1 (stereo not drawn) [Example 4, β-Cyclopropyl-β-oxo-α-propargylcarbamoylpropionitrile]	–	–	AIP Inhib. score (% Inhibition of paw edema) d. 40-42 ([1]; 50 mg/kg once daily p.o. d. 1-8, read d. 40-42): ++ +; inhibition in vivo at 50 mg/kg ([1]; Rattus norvegicus, po, 480 h, 50 mg/kg once daily p.o. d. 1-8, read d. 20-22, read-out: AIP Inhib. score (% Inhibition of paw edema) d. 20-22): 60 to 80%
CNC(=O)C(C#N)C(=O)C1CCC1 (stereo not drawn) [Example 7, β-Cyclobutyl-β-oxo-α-methylcarbamoylpropionitrile]	< 25%	25 to 40%	–
